Series [1] relates to mir-155^LSLtTA lymphoma subcutaneous flank tumors. Put plainly: mir-155^LSLtTA lymphoma subcutaneous flank tumor model in nude mice. The class given is in vivo. As to conditions: early endpoint study; n = 3, pHLIP-anti155 n = 4.
For series [2] the following is noted: mouse, in vivo, iv.

Turning to `C[C@H]1c2cccc(O)c2C(=O)C2=C(O)[C@]3(O)C(=O)C(C(N)=O)=C(O)[C@@H](N(C)C)[C@@H]3[C@@H](O)[C@@H]21` [DOX, doxycycline], in series [1], the “Onset of splenomegaly (spleen mass)” value is listed as “reduced the onset of splenomegaly”.

With “AAEQNPIYWARYADWLFTTPLLLLDLALLVDADEGT(CNPys)G [pHLIP]”, in series [2], the Clearance route result is listed as “much of the peptide is cleared by renal excretion” and the Kidney distribution entry is given as “shows kidney targeting”.

The record behind these values is publication PMC4367962 (Nature, 2014).
